Data from US6642392B1 (priority 1997, dated 2003).
Where two headings read alike, the source gives them in different places.

Experiments:
Assay type in all cases: in vivo
[1] = test system: Eiysiphe graminis f. sp. tritici; assay: Test A: wheat powdery mildew, preventive spray on wheat seedlings; conditions: for Test A disease control rating: wheat powdery mildew; for Test A disease control rating (100 = 100% disease control, 0 = no disease control): wheat seedlings sprayed to run-off, inoculated the following day, rating relative to controls, unmarked compounds (standard test rate)
How it was run: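 Preventive test: seedlings inoculated with powdery mildew spores one day after run-off spraying of a suspension. Ratings after 7 days in a 20° C growth chamber express percent disease control versus controls.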

Puccinia recondita = assay: Test B: wheat leaf rust, preventive spray on wheat seedlings; conditions: for Test B disease control rating: wheat leaf rust; for Test B disease control rating (100 = 100% disease control, 0 = no disease control): wheat seedlings sprayed to run-off, inoculated the following day, rating relative to controls, unmarked compounds (standard test rate)
How it was run: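 Preventive test: P. recondita spores were applied one day after a run-off spray of compound suspension on wheat seedlings. Plants had 24 h at 20 °C in saturated air plus 6 days in a 20 °C growth chamber. Scoring is % disease control (100 = full) relative to controls.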

Pyricularia oryzae = conditions: for Test C disease control rating: rice blast; for Test C disease control rating (100 = 100% disease control, 0 = no disease control): rice seedlings sprayed to run-off, inoculated the following day, rating relative to controls, unmarked compounds (standard test rate)
Phytophthora infestans = conditions: for Test D disease control rating: tomato late blight; for Test D disease control rating (100 = 100% disease control, 0 = no disease control): tomato seedlings sprayed to run-off, inoculated the following day, rating relative to controls, unmarked compounds (standard test rate)
Botrytis cinerea = assay: Test E: gray mold, preventive spray on cucumber seedlings; conditions: for Test E disease control rating: gray mold on cucumber; for Test E disease control rating (100 = 100% disease control, 0 = no disease control): cucumber seedlings sprayed to run-off, inoculated the following day, rating relative to controls, unmarked compounds (standard test rate)
How it was run: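 Preventive spray on cucumber seedlings used a suspension (3% acetone, 250 ppm Trem 014), applied to run-off one day before inoculation with Botrytis cinerea spores. Plants were held 48 h at 20° C in saturated air, then 5 days at 20° C. Percent disease control was scored relative to untreated plants.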

[2] = 100 = 100% disease control, 0 = no control relative to controls, unmarked entries (standard test concentration)
[3] = 100 = 100% disease control, 0 = no control, unmarked entries (standard test concentration)

Row | Structure (SMILES) | Test A disease control rating [1, 2] [%] | Test B disease control rating (Puccinia recondita; [3]) [%] | Test C disease control rating (Pyricularia oryzae; [3]) [%] | Test D disease control rating (Phytophthora infestans; [3]) [%] | Test E disease control rating (Botrytis cinerea; [3]) [%] | also measured
1 | C[C@H](COc1cc(F)ccc1F)NC(=O)C(C#N)C(C)(C)C (single isomer, unassigned) [28a] | 38 | 28 | 100 | 68 | 0 | –
2 | CCC1(C(=O)NC(C)COn2c(C#N)cc(Cl)c2Cl)C(C)C1(Cl)Cl (mixture of isomers) [compound 139] | 71 | 0 | 91 | 0 | 0 | –
3 | C=CCc1ccccc1OCC(C)NC(=O)C(C#N)C(C)(C)C (mixture of isomers) [25a] | 95 | 28 | 32 | 0 | 0 | –
4 | C[C@H](COc1cc(F)c(Cl)cc1F)NC(=O)C(C#N)C(C)(C)C (single isomer, unassigned) [173b] | 0 | 0 | 90 | 91 | 0 | –
5 | Cc1c(Br)cc(C#N)n1OCC(C)NC(=O)C(C#N)C(C)C(C)(C)C (mixture of isomers) [compound 70] | 63 | 0 | 0 | 13 | 0 | –
6 | C=CCC(C#N)C(=O)NC(C)C(Oc1cc(F)ccc1C#N)c1ccccc1 (mixture of isomers) [compound 284] | – | – | – | – | – | Test A disease control rating (100 = 100% disease control, 0 = no disease control) [1]: 0%; Test B disease control rating (100 = 100% disease control, 0 = no disease control) (Puccinia recondita): 0%; Test C disease control rating (100 = 100% disease control, 0 = no disease control) (Pyricularia oryzae): 99%; Test D disease control rating (100 = 100% disease control, 0 = no disease control) (Phytophthora infestans): 0%; Test E disease control rating (100 = 100% disease control, 0 = no disease control) (Botrytis cinerea): 0%
7 | CC(COc1ccccc1C(C)C)NC(=O)C(C#N)C(C)(C)C (mixture of isomers) [compound 22] | 0 | 0 | 100 | 0 | 0 | –
8 | CCC1(C(=O)NCCCn2cccc2C#N)C(C)C1(Cl)Cl (stereo not drawn) [compound 149] | 30 | 27 | 53 | 0 | 0 | –
9 | CCC1(C(=O)NC(C)COc2cc(F)cc(F)c2F)C(C)C1(Cl)Cl (stereo not drawn) [compound 109] | – | – | – | – | – | Test A disease control rating ([1]; tested at 40 ppm): 52%; Test B disease control rating (Puccinia recondita; tested at 40 ppm): 0%; Test C disease control rating (Pyricularia oryzae; tested at 40 ppm): 53%; Test D disease control rating (Phytophthora infestans; tested at 40 ppm): 0%; Test E disease control rating (Botrytis cinerea; tested at 40 ppm): 0%
10 | CC(NC(=O)C(C#N)C(C)(C)C)C(Oc1ccccc1C#N)c1ccccc1 (mixture of isomers) [compound 291] | – | – | – | – | – | Test A disease control rating (100 = 100% disease control, 0 = no disease control) [1]: 0%; Test B disease control rating (100 = 100% disease control, 0 = no disease control) (Puccinia recondita): 0%; Test C disease control rating (100 = 100% disease control, 0 = no disease control) (Pyricularia oryzae): 90%; Test D disease control rating (100 = 100% disease control, 0 = no disease control) (Phytophthora infestans): 0%; Test E disease control rating (100 = 100% disease control, 0 = no disease control) (Botrytis cinerea): 0%
11 | CC(COc1cccc(I)c1C#N)NC(=O)C(C#N)C(C)(C)C (mixture of isomers) [compound 45] | 0 | 0 | 86 | 0 | 0 | –
12 | CCC1(C(=O)NCCOc2ccccc2)C(C)C1(Cl)Cl (stereo not drawn) [compound 153] | 92 | 64 | 94 | 92 | 0 | –
13 | CCCC(C#N)C(=O)NC(C)C(Oc1ccccc1C#N)c1ccccc1 (mixture of isomers) [compound 288] | – | – | – | – | – | Test A disease control rating (100 = 100% disease control, 0 = no disease control) [1]: 33%; Test B disease control rating (100 = 100% disease control, 0 = no disease control) (Puccinia recondita): 0%; Test C disease control rating (100 = 100% disease control, 0 = no disease control) (Pyricularia oryzae): 86%; Test D disease control rating (100 = 100% disease control, 0 = no disease control) (Phytophthora infestans): 0%; Test E disease control rating (100 = 100% disease control, 0 = no disease control) (Botrytis cinerea): 0%
14 | CC(COc1cccc(C(F)(F)F)c1C#N)NC(=O)C(C#N)C(C)(C)C (mixture of isomers) [compound 47] | 0 | 0 | 53 | 52 | 0 | –
15 | CCC1(C(=O)NC(C)COc2c(Cl)cccc2Cl)C(C)C1(Cl)Cl (stereo not drawn) [compound 114] | – | – | – | – | – | Test A disease control rating ([1]; tested at 40 ppm): 83%; Test B disease control rating (Puccinia recondita; tested at 40 ppm): 0%; Test C disease control rating (Pyricularia oryzae; tested at 40 ppm): 0%; Test D disease control rating (Phytophthora infestans; tested at 40 ppm): 0%; Test E disease control rating (Botrytis cinerea; tested at 40 ppm): 0%
16 | CCC1(C(=O)NC(C)COc2cc(F)c(F)cc2C#N)C(C)C1(Cl)Cl (mixture of isomers) [compound 257] | – | – | – | – | – | Test A disease control rating (100 = 100% disease control, 0 = no disease control) [1]: 0%; Test B disease control rating (100 = 100% disease control, 0 = no disease control) (Puccinia recondita): 0%; Test C disease control rating (100 = 100% disease control, 0 = no disease control) (Pyricularia oryzae): 0%; Test D disease control rating (100 = 100% disease control, 0 = no disease control) (Phytophthora infestans): 0%; Test E disease control rating (100 = 100% disease control, 0 = no disease control) (Botrytis cinerea): 0%
17 | C#CC(C)(C)C(C#N)C(=O)NC(C)COc1cc(F)ccc1F (mixture of isomers) [compound 211] | 63 | 0 | 100 | 76 | 0 | –
18 | CCC1(C(=O)NC(C)COc2ccc(Br)cc2)C(C)C1(Cl)Cl (mixture of isomers) [86b] | – | – | – | – | – | Test A disease control rating ([1]; tested at 40 ppm): 52%; Test B disease control rating (Puccinia recondita; tested at 40 ppm): 0%; Test C disease control rating (Pyricularia oryzae; tested at 40 ppm): 0%; Test D disease control rating (Phytophthora infestans; tested at 40 ppm): 28%; Test E disease control rating (Botrytis cinerea; tested at 40 ppm): 0%
19 | CC(COc1cccc(I)c1C#N)NC(=O)C(C#N)C(C)C(C)(C)C (mixture of isomers) [compound 65] | 0 | 0 | 0 | 2 | 0 | –
20 | C[C@H](COc1cccc(F)c1)NC(=O)C(C#N)C(C)(C)C (single isomer, unassigned) [3d] | 92 | 0 | 100 | 99 | 0 | –
21 | C[C@H](COc1cc(F)ccc1Cl)NC(=O)C(C#N)C(C)(C)C (single isomer, unassigned) [191a] | 0 | 0 | 100 | 25 | 85 | –
22 | CC(COc1ccccc1F)NC(=O)C(C#N)C(C)(C)C (mixture of isomers) [2a] | 0 | 0 | 0 | 0 | 55 | –
23 | C#CC(C)(C=C)C(C#N)C(=O)NC(C)COc1cc(Cl)ccc1F (mixture of isomers) [compound 302] | – | – | – | – | – | Test A disease control rating (100 = 100% disease control, 0 = no disease control) [1]: 0%; Test B disease control rating (100 = 100% disease control, 0 = no disease control) (Puccinia recondita): 0%; Test C disease control rating (100 = 100% disease control, 0 = no disease control) (Pyricularia oryzae): 99%; Test D disease control rating (100 = 100% disease control, 0 = no disease control) (Phytophthora infestans): 24%; Test E disease control rating (100 = 100% disease control, 0 = no disease control) (Botrytis cinerea): 0%
24 | CCC1(C(=O)NC(C)COc2ccccc2I)C(C)C1(Cl)Cl (mixture of isomers) [87a] | – | – | – | – | – | Test A disease control rating ([1]; tested at 40 ppm): 0%; Test B disease control rating (Puccinia recondita; tested at 40 ppm): 0%; Test C disease control rating (Pyricularia oryzae; tested at 40 ppm): 74%; Test D disease control rating (Phytophthora infestans; tested at 40 ppm): 0%; Test E disease control rating (Botrytis cinerea; tested at 40 ppm): 0%
25 | C[C@H](COc1cc(F)cc(F)c1Cl)NC(=O)C(C#N)C(C)(C)C (single isomer, unassigned) [169a] | 84 | 27 | 91 | 24 | 0 | –
26 | CCC1(C(=O)NC(C)COc2c(Br)cc(F)cc2Br)C(C)C1(Cl)Cl (stereo not drawn) [compound 250] | – | – | – | – | – | Test A disease control rating (100 = 100% disease control, 0 = no disease control) [1]: 0%; Test B disease control rating (100 = 100% disease control, 0 = no disease control) (Puccinia recondita): 0%; Test C disease control rating (100 = 100% disease control, 0 = no disease control) (Pyricularia oryzae): 52%; Test D disease control rating (100 = 100% disease control, 0 = no disease control) (Phytophthora infestans): 0%; Test E disease control rating (100 = 100% disease control, 0 = no disease control) (Botrytis cinerea): 85%
27 | CCC1(C(=O)NC(C)COc2ccc(F)cc2C#N)C(C)C1(Cl)Cl (mixture of isomers) [compound 129] | 38 | 26 | 74 | 0 | 0 | –
